Measurements reported in patent publication US20230192718A1, “BICYCLIC ENONE CARBOXYLATES AS MODULATORS OF TRANSPORTERS AND USES THEREOF” (NIROGY THERAPEUTICS, INC., priority 2018, published 2023).

Columns and labels:
[1] = test system: panel of solid and haemotological tumor cell lines; experiment: MTS cell proliferation assay (cytotoxicity); assay type: cell-based; conditions: 72 hours incubation, MTS readout
Procedure: MTS Cell Proliferation Assay
The anti-proliferation effect of MCT inhibition was investigated across a panel of solid and haemotological tumor cell lines. Cells were routinely cultured in their appropriate growth medium. On day 1, between 5,000-20,000 cells/well were plated into 96-well plates. 100 μL of phosphate buffered saline solution was added to the external wells to prevent media evaporation. Plates were incubated in growth medium overnight at 37° C. in the presence of 5% CO2. On day 2, dry weight compound stocks were dissolved to a concentration of 20 mM in 100% DMSO. Compounds were further diluted in the assay medium; 10 mM lactate medium (without glucose, pyruvate, and glutamine) or RPMI medium or appropriate medium to generate a final dose range of 10 nM to 100 μM. Growth medium in the 96-well plate was replaced with the assay medium (10 mM lactate medium or RPMI medium or appropriate medium), and compounds were added to each well in the plate at different concentrations via serial dilution or pre-prepared solutions in assay medium. Plates were then incubated at 37° C. in the presence of 5% CO2 for a further 72 hours. On day 5, 20 μL of CellTiter 96 AQ MTS reagent was added to each well and the plate was returned to the incubator for 2 hours. In case of lactate medium, the medium was replaced by 100 μL of growth medium and 20 μL of CellTiter 96 AQ MTS reagent. MTS is bioreduced by NADPH or NADH produced by dehydrogenase enzymes in metabolically active cells into a coloured formazan product that is soluble in tissue culture medium. The amount of coloured formazan product is directly proportional to the number of living cells in culture. The absorbance of the plates was read on a Synergy H4 plate reader using […] measurement wavelength. Dose response curves were plotted and IC50 values were calculated using GraphPrism. The IC50 value is equivalent to the concentration of compound that causes 50% inhibition of growth calculated from the compound treated signal to the vehicle treated signal.
MTT Cell Proliferation Assay
The MIT assay is a colorimetric assay for assessing cell viability similar to MTS assay. NAD(P)H-dependent cellular oxidoreductase enzymes may, under defined conditions, reflect the number of viable cells present. These enzymes are capable of reducing the tetrazolium dye MTT 3-(4,5-dimethylthiazol-2-yl)-2,5-diphenyltetrazolium bromide to its insoluble formazan, which has a purple color. MTT powder is dissolved in Dulbecco's Phosphate Buffered Saline, pH=7.4 (DPBS) to 5 mg/ml as stock solution. Cells and test compounds in 96-well plates were prepared containing a final volume of 100 μL/well as described in the MTS assay. The assay was performed similar to MTS assay above. […] The absorbance was read at 570 nm.

[2] = test system: MDA-MB-231 human breast carcinoma cells; experiment: Tumor xenograft model (orthotopic, NOD-SCID mice); assay type: in vivo; conditions: nine days after start of treatment
Procedure: In order to test the in vivo efficacy of the invention, Example 9 was tested according to the protocol of Iorns to al. [Iorns E, Drews-Elger K, Ward T M, Dean S, Clarke J, Berry D, et al. (2012) A New Mouse Model for the Study of Human Breast Cancer Metastasis. PLoS ONE 7(10): e47995. https://doi.org/10.1371/journal.pone.0047995] Twenty-eight female NOD-SCID mice (Charles River) were injected orthotopically with basal MDA-MB-231 human breast carcinoma cells into the mammary fat pads. […] Mice were dosed qd with 30 mg/kg and 75 mg/kg p.o. of Example 9. At nine days after start of treatment tumor volume was roughly 50% of control in mice dosed at 30 mg/kg and roughly 30% of control in mice dosed at 75 mg/kg.

SMILES	IC50 [1] [µM]	tumor volume, % of control ([2]; 30 mg/kg p.o. qd)	tumor volume, % of control ([2]; 75 mg/kg p.o. qd)
COc1ccccc1C(=O)N(C)c1cc2oc(=O)c(C(=O)O)cc2s1 [Example 17, 2-[(2-Methoxy-benzoyl)-methyl-amino]-5-oxo-5H-thieno[3,2-b]pyran-6-carboxylic acid]	< 1	–	–
CN(Cc1ccccc1)c1cc2oc(=O)c(C(=O)O)cc2s1 [Example 1, 2-(benzyl(methyl)amino)-5-oxo-5H-thieno[3,2-b]pyran-6-carboxylic acid]	< 1	–	–
CN(Cc1ccc(F)cc1)c1cc2oc(=O)c(C(=O)O)cc2s1 [Example 2, 2-((4-fluorobenzyl)(methyl)amino)-5-oxo-5H-thieno[3,2-b]pyran-6-carboxylic acid]	< 1	–	–
COc1cccc(C(=O)N(C)c2cc3oc(=O)c(C(=O)O)cc3s2)c1 [Example 9, 2-(3-methoxy-N-methylbenzamido)-5-oxo-5H-thieno[3,2-b]pyran-6-carboxylic acid]	< 1	roughly 50 % of control	roughly 30 % of control
